# Results as given in PubChem BioAssay AID248 (DTP/NCI, 2004).
# Where “and” joins values, the source holds several entries; their conditions need not be identical. Equal entries are not always repeated. Inconclusive results and toxic doses are left out.
# Test system: L1210 leukemia ip in BDF1 mice, survival T/C
# Test: NCI In Vivo Anticancer Drug Screen. Data for tumor model L1210 Leukemia (intraperitoneal) in B6D2F1 (BDF1) mice
# Conditions: endpoint: mean survival time, higher = longer survival
# Method in brief: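 Read-out is survival time, reported as the treated-group measurement over the vehicle-control measurement.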
# [1] = dose: 75.0 mg/kg/injection, schedule: Q01DX001 (ip), vehicle: saline
# [2] = dose: 150.0 mg/kg/injection, schedule: Q01DX001 (ip), vehicle: saline
# [3] = dose: 100.0 mg/kg/injection, schedule: Q04DX003 (ip), vehicle: saline with Tween-80
# [4] = dose: 200.0 mg/kg/injection, schedule: Q04DX003 (ip), vehicle: saline with Tween-80
# [5] = dose: 400.0 mg/kg/injection, schedule: Q04DX003 (ip), vehicle: saline with Tween-80
# [6] = dose: 100.0 mg/kg/injection, schedule: Q01DX009 (ip), vehicle: Klucel (hydroxypropylcellulose) (HPC)
# [7] = dose: 100.0 mg/kg/injection, schedule: Q04DX003 (ip), vehicle: Klucel (hydroxypropylcellulose) (HPC)
# [8] = dose: 200.0 mg/kg/injection, schedule: Q04DX003 (ip), vehicle: Klucel (hydroxypropylcellulose) (HPC)
# [9] = dose: 100.0 mg/kg/injection, schedule: Q01DX001 (ip), vehicle: saline
# [10] = dose: 200.0 mg/kg/injection, schedule: Q01DX001 (ip), vehicle: saline
# [11] = dose: 400.0 mg/kg/injection, schedule: Q01DX001 (ip), vehicle: saline
# [12] = dose: 200.0 mg/kg/injection, schedule: Q01DX009 (ip), vehicle: Klucel (hydroxypropylcellulose) (HPC)
# [13] = dose: 400.0 mg/kg/injection, schedule: Q01DX009 (ip), vehicle: Klucel (hydroxypropylcellulose) (HPC)
# [14] = dose: 400.0 mg/kg/injection, schedule: Q04DX003 (ip), vehicle: Klucel (hydroxypropylcellulose) (HPC)
smiles,measurement,setting,value
CN(CC(=O)c1ccc(-c2ccccc2)cc1)C(=O)c1ccccc1,T/C,"dose: 75.0 mg/kg/injection, schedule: Q04DX003 (ip), vehicle: Klucel (hydroxypropylcellulose) (HPC)",96 % of control
same,T/C,"dose: 150.0 mg/kg/injection, schedule: Q04DX003 (ip), vehicle: Klucel (hydroxypropylcellulose) (HPC)",89 % of control
same,T/C,"dose: 300.0 mg/kg/injection, schedule: Q04DX003 (ip), vehicle: Klucel (hydroxypropylcellulose) (HPC)",89 % of control
CN(N=O)C(=O)Nc1ccccc1,T/C,"dose: 6.25 mg/kg/injection, schedule: Q01DX Z (ip), vehicle: carboxymethylcellulose (CMC)",104 % of control
same,T/C,"dose: 12.5 mg/kg/injection, schedule: Q01DX Z (ip), vehicle: carboxymethylcellulose (CMC)",112 % of control
same,T/C,"dose: 25.0 mg/kg/injection, schedule: Q01DX Z (ip), vehicle: carboxymethylcellulose (CMC)",112 % of control
same,T/C,"dose: 50.0 mg/kg/injection, schedule: Q01DX Z (ip), vehicle: carboxymethylcellulose (CMC)",122 % of control
same,T/C,"dose: 100.0 mg/kg/injection, schedule: Q01DX Z (ip), vehicle: carboxymethylcellulose (CMC)",91 % of control
same,T/C,"dose: 150.0 mg/kg/injection, schedule: Q01DX001 (ip), vehicle: carboxymethylcellulose (CMC)",112 % of control
same,T/C,"dose: 600.0 mg/kg/injection, schedule: Q01DX001 (ip), vehicle: carboxymethylcellulose (CMC)",117 % of control
CCC(=O)C1(c2cccc(O)c2)CCN(C)CC1,T/C,[1],94 % of control
same,T/C,[2],97 % of control
CCCC(C)C(=O)Nc1cccc(OC(=O)N(C)C)c1 (stereo unspecified),T/C,[3],95 % of control
same,T/C,[4],96 % of control
same,T/C,[5],93 % of control
O=c1cc(-c2ccc(Cl)cc2)oc(-c2ccc(Cl)cc2)c1,T/C,"dose: 50.0 mg/kg/injection, schedule: Q01DX009 (ip), vehicle: Klucel (hydroxypropylcellulose) (HPC)",94 % of control
same,T/C,[6],93 % of control
same,T/C,[7],89 % of control
same,T/C,[8],92 % of control
O=C(O)c1c(CN2CCOCC2)c(O)c(O)c(O)c1CN1CCOCC1,T/C,[9],103 % of control
same,T/C,[10],107 % of control
same,T/C,[11],103 % of control
O=C1C=CC(=O)C(SCCCSC2=CC(=O)C(SCCCSC3=CC(=O)C=CC3=O)=CC2=O)=C1,T/C,[9],92 % of control
same,T/C,[10],92 % of control
same,T/C,[11],101 % of control
COc1ccc(C(O)C(C)N)cc1 (stereo unspecified),T/C,[1],96 % of control
same,T/C,[2],96 % of control
NN=O,T/C,[9],97 % of control
same,T/C,[10],101 % of control
O=C(NC1CCC(NC(=O)N2CC2)CC1)N1CC1 (stereo unspecified),T/C,"dose: 0.12 mg/kg/injection, schedule: Q01DX009 (ip), vehicle: carboxymethylcellulose (CMC)",116 % of control
same,T/C,"dose: 0.29 mg/kg/injection, schedule: Q01DX009 (ip), vehicle: carboxymethylcellulose (CMC)",120 % of control
same,T/C,"dose: 0.8 mg/kg/injection, schedule: Q01DX009 (ip), vehicle: carboxymethylcellulose (CMC)",164 % of control
same,T/C,"dose: 1.0 mg/kg/injection, schedule: Q01DX009 (ip), vehicle: carboxymethylcellulose (CMC)",118 % of control
same,T/C,"dose: 1.2 mg/kg/injection, schedule: Q01DX009 (ip), vehicle: carboxymethylcellulose (CMC)",164 % of control
same,T/C,"dose: 1.3 mg/kg/injection, schedule: Q01DX001 (ip), vehicle: carboxymethylcellulose (CMC)",114 % of control and 115 % of control
same,T/C,"dose: 1.3 mg/kg/injection, schedule: Q01DX009 (ip), vehicle: carboxymethylcellulose (CMC)",94 % of control
same,T/C,"dose: 1.8 mg/kg/injection, schedule: Q01DX009 (ip), vehicle: carboxymethylcellulose (CMC)",170 % of control
same,T/C,"dose: 2.0 mg/kg/injection, schedule: Q01DX001 (ip), vehicle: carboxymethylcellulose (CMC)",112 % of control and 123 % of control
same,T/C,"dose: 2.0 mg/kg/injection, schedule: Q01DX009 (ip), vehicle: carboxymethylcellulose (CMC)",94 % of control
same,T/C,"dose: 2.5 mg/kg/injection, schedule: Q01DX009 (ip), vehicle: carboxymethylcellulose (CMC)",120 % of control
same,T/C,"dose: 3.0 mg/kg/injection, schedule: Q01DX001 (ip), vehicle: carboxymethylcellulose (CMC)",119 % of control
same,T/C,"dose: 3.37 mg/kg/injection, schedule: Q01DX009 (ip), vehicle: carboxymethylcellulose (CMC)",97 % of control
same,T/C,"dose: 4.5 mg/kg/injection, schedule: Q01DX001 (ip), vehicle: carboxymethylcellulose (CMC)",151 % of control
COC1=CCC2=C(C1)CC(C)O2 (stereo unspecified),T/C,"dose: 100.0 mg/kg/injection, schedule: Q04DX003 (ip), vehicle: acetone",93 % of control
same,T/C,"dose: 200.0 mg/kg/injection, schedule: Q04DX003 (ip), vehicle: acetone",102 % of control
same,T/C,"dose: 400.0 mg/kg/injection, schedule: Q04DX003 (ip), vehicle: acetone",93 % of control
CCc1ccc(NS(=O)(=O)c2c(C)cc(C)cc2C)cc1,T/C,[6],101 % of control
same,T/C,[12],105 % of control
same,T/C,[13],97 % of control
Clc1cccc(Cl)c1C[N+]12CN3CN(CN(C3)C1)C2,T/C,"dose: 30.0 mg/kg/injection, schedule: Q01DX015 (ip), vehicle: saline",95 % of control
same,T/C,"dose: 60.0 mg/kg/injection, schedule: Q01DX015 (ip), vehicle: saline",100 % of control
same,T/C,"dose: 120.0 mg/kg/injection, schedule: Q01DX015 (ip), vehicle: saline",105 % of control
COc1ccc(C2CCC(=O)CC2(O)C(=O)O)cc1 (stereo unspecified),T/C,[6],91 % of control
same,T/C,[7],98 % of control
same,T/C,[12],88 % of control
same,T/C,[8],102 % of control
same,T/C,[13],98 % of control
same,T/C,[14],100 % of control
CCCCCCCCC(C)NCCOC(=O)c1ccc(N)cc1 (stereo unspecified),T/C,"dose: 9.38 mg/kg/injection, schedule: Q01DX001 (ip), vehicle: other",102 % of control
same,T/C,"dose: 18.75 mg/kg/injection, schedule: Q01DX001 (ip), vehicle: other",101 % of control
same,T/C,"dose: 37.5 mg/kg/injection, schedule: Q01DX001 (ip), vehicle: other",98 % of control
CCCC(C)Cc1ccc(C(=O)O)cc1 (stereo unspecified),T/C,[6],95 % of control
same,T/C,[7],97 % of control
same,T/C,[12],104 % of control
same,T/C,[8],103 % of control
same,T/C,[14],107 % of control
CCOCCc1ccncc1,T/C,"dose: 50.0 mg/kg/injection, schedule: Q01DX009 (ip), vehicle: saline",101 % of control
same,T/C,"dose: 100.0 mg/kg/injection, schedule: Q01DX009 (ip), vehicle: saline",94 % of control
same,T/C,"dose: 200.0 mg/kg/injection, schedule: Q01DX009 (ip), vehicle: saline",90 % of control
COc1ccccc1CN1CCCN(Cc2ccccc2OC)C1c1cccnc1,T/C,"dose: 50.0 mg/kg/injection, schedule: Q01DX001 (ip), vehicle: carboxymethylcellulose (CMC)",112 % of control
same,T/C,"dose: 100.0 mg/kg/injection, schedule: Q01DX001 (ip), vehicle: carboxymethylcellulose (CMC)",108 % of control
same,T/C,"dose: 200.0 mg/kg/injection, schedule: Q01DX001 (ip), vehicle: carboxymethylcellulose (CMC)",106 % of control
same,T/C,"dose: 400.0 mg/kg/injection, schedule: Q01DX001 (ip), vehicle: carboxymethylcellulose (CMC)",108 % of control
OCCOCc1ccccc1,T/C,"dose: 100.0 mg/kg/injection, schedule: Q04DX003 (ip), vehicle: saline",104 % of control
same,T/C,"dose: 200.0 mg/kg/injection, schedule: Q04DX003 (ip), vehicle: saline",98 % of control
same,T/C,"dose: 400.0 mg/kg/injection, schedule: Q04DX003 (ip), vehicle: saline",100 % of control
COc1cccc(N2C(=O)C3C(C2=O)C2(Cl)C(Cl)=C(Cl)C3(Cl)C2(Cl)Cl)c1 (stereo unspecified),T/C,[6],98 % of control
same,T/C,[12],94 % of control
same,T/C,[13],89 % of control
C=NNC(=O)c1ccncc1,T/C,[3],89 % of control
same,T/C,[4],94 % of control
same,T/C,[5],88 % of control
CSc1nc(N=[N+]=[N-])n(C)n1,T/C,"dose: 100.0 mg/kg/injection, schedule: Q04DX002 (ip), vehicle: saline with Tween-80",95 % of control
same,T/C,"dose: 200.0 mg/kg/injection, schedule: Q04DX002 (ip), vehicle: saline with Tween-80",95 % of control
same,T/C,"dose: 400.0 mg/kg/injection, schedule: Q04DX002 (ip), vehicle: saline with Tween-80",92 % of control
COC(=O)C1=C(\N2CCOCC2)CCCCC/C=C\1C(=O)OC,T/C,"dose: 100.0 mg/kg/injection, schedule: Q01DX009 (ip), vehicle: saline with Tween-80",94 % of control
same,T/C,"dose: 200.0 mg/kg/injection, schedule: Q01DX009 (ip), vehicle: saline with Tween-80",91 % of control
same,T/C,"dose: 400.0 mg/kg/injection, schedule: Q01DX009 (ip), vehicle: saline with Tween-80",89 % of control
C/C(=C\C(C)C)C1(C)C(=O)NC(=O)NC1=O,T/C,"dose: 75.0 mg/kg/injection, schedule: Q01DX001 (ip), vehicle: other",96 % of control
same,T/C,"dose: 150.0 mg/kg/injection, schedule: Q01DX001 (ip), vehicle: other",109 % of control
same,T/C,"dose: 300.0 mg/kg/injection, schedule: Q01DX001 (ip), vehicle: other",105 % of control
